Results from US8022040B2, “Hydroxyapatite-binding peptides for bone growth and inhibition” (The Regents of the University of California, priority 2004, dated 2011).
Where two headings read alike, the source gives them in different places. Positions of bridges follow the written chain, without caps; N, C: chain ends. No end group written: not given here.

How the values were obtained:
[1] = for HA nucleation templated by peptide deposited from cosolvent: 1.5 mg/ml in acetonitrile and water (1:1/v:v), dried on grid, soaked in mineral precursor solutions; for HA nucleation templated by peptide solution in 100% water: compared to peptides 1 and 2
Description: (CaCl2 (10 mM)+Na2HPO4 (5 mM)→Ca10(OH)2(PO4)6). The inset photographs show the X-ray diffraction patterns of the crystals at each timepoint.
In order to investigate the nucleation ability of these binding peptides, the major 12-mer linear binding peptide was synthesized by solid phase synthetic method and subjected to HA-mineralization on holey carbon film-coated TEM grids according to J. D. Hartgerink, E. Beniash, S. I. Stupp, Science, 294, 1684 (2001), which is hereby incorporated by reference.
In order to study kinetics of HA nucleation by this peptide suspension, time dependence nucleation was investigated by preparing parallel TEM samples where HA was nucleated for 30 min (FIG. 20, Panel C), 1 hr (FIG. 20, Panel D), and 2 hrs (FIG. 20, Panel E) by same concentration peptide suspension.

[2] = Flow cytometric measurement of fluorescence intensity of binding viruses on HA surfaces
Description: (§1) Single crystalline and polycrystalline HA were freshly etched to remove carbonated contaminates and incubated with 1×10^10 pfu of phage of W4a-4-14 (Single 14), W4a-4-15 (single 15), HA-4-3 (poly 3), wild type (wild) phages suspension for these assays.
(§2) As described in Example 1, 4 mg of single crystalline HA was freshly etched to remove carbonated contaminates and incubated with 1×10^10 pfu of phage of constrained W4a-4-14 (Single 14), W4a-4-15 (single 15), HA-4-3 (poly 3), wild type (wild) phages suspension. After washing off with TBST (0.5%) ten times, the bound phage was eluted using glycine-HCl […] and titered to count number of bound phage.
After 30 minutes incubation of 4 mg/ml of HA crystals with ˜10^10 pfu/ml of each phage, CLP7, CLP12, or the wild type phages, the HA crystals were washed ten times with Tris-buffered saline solution (pH 7.5) contained 0.5% Tween 20. The phage bound to HA surfaces was labeled by R-phycoerythrin-conjugated monoclonal pVIII antibody (Amersham Pharmacia Biotech, UK), and the fluorescence images were acquired (Nikon fluorescence microscope, Japan) and the fluorescence intensity was quantified by FACS Calibur flow cytometer (BD Biosciences, Calif.).

[3] = Phage titering assay counting phage eluted from HA; type: binding; details: FIG. 12 Panel B; comparing to the wild type viruses / the other three peptides; TBST (0.5%) wash, glycine-HCl elution
Description: as §1, §2

[4] = 1.5 mg/ml peptide, two hours mineralization, 5 mM Na2HPO4 + 10 mM CaCl2

Row | Substance | HA nucleation templated by peptide deposited from cosolvent [1] | HA nucleation templated by peptide solution in 100% water [1] | HA deposition templated by peptide (TEM/SAED) [1, 4] | further results
1 | APYHPTIPASVH-GGGK-biotin [peptide 5] | nucleation phenomena similar to those templated by HA binding peptides | relatively bigger amorphous calcium phosphate aggregation |  | 
2 | Cys Asn Tyr Pro Thr Leu Lys Ser Cys (CNYPTLKSC; disulfide 1-9 (inferred); also: displayed on M13 phage) [single 14] |  |  |  | binding to HA surfaces, rank among viruses tested ([2]; phage-displayed peptides single 14, single 15, poly 3 and wild type): bind best to HA surfaces among all viruses tested; strength of HA binding relative to comparators [3]: almost three times stronger
3 | NIYHPTPPQSVH-GGGK-biotin [control peptide 1] |  |  | amorphous calcium phosphate deposition without any clear SAED patterns | 
4 | NPDHPDIPQDVH-GGGK-biotin [Control peptide 2] |  |  | amorphous deposition of calcium phosphate without any clear diffraction patterns | 
5 | NPYAPTIPQSVA-GGGK-biotin [peptide 4] | nucleation phenomena similar to those templated by HA binding peptides | relatively bigger amorphous calcium phosphate aggregation |  | 
6 | NPYHPTIPQSVH [Single 15] |  |  |  | improved binding affinity (fluorescence intensity of binding viruses on HA surfaces) ([2]; flow cytometry, FIG. 12 Panel A, phage-displayed peptide compared to wild type phage, 1×10^10 pfu): around 50%
7 | NPYHPTIPQSVH-GGGK-biotin [peptide 3] | nucleation phenomena similar to those templated by HA binding peptides | reduced HA-nucleation ability with different morphology of HA crystals |  | 
8 | NPYHPTIPQSVH-GGGK-biotin [single 15-biotin] |  |  | well crystallized HA deposition | HA deposition templated by peptide (TEM/SAED) ([1]; 15 mg/ml peptide, two hours, same amount of CaCl2 and Na2HPO4): well-crystallized HA crystals; HA nucleation, time dependence (TEM/SAED) ([1]; 30 min): amorphous deposition of calcium phosphate; HA nucleation, time dependence (TEM/SAED) ([1]; after 2 hours): fully developed HA crystals were nucleated
